# Patent US20250177359A1, “COMPOUNDS FOR USE IN THE TREATMENT OF CANCER AND INFLAMMATORY CONDITIONS” (priority 2022, published 2025)
# Target: T1, PARP15 (Homo sapiens, UniProt Q460N3)
# T1 sequence (Q460N3 1-678): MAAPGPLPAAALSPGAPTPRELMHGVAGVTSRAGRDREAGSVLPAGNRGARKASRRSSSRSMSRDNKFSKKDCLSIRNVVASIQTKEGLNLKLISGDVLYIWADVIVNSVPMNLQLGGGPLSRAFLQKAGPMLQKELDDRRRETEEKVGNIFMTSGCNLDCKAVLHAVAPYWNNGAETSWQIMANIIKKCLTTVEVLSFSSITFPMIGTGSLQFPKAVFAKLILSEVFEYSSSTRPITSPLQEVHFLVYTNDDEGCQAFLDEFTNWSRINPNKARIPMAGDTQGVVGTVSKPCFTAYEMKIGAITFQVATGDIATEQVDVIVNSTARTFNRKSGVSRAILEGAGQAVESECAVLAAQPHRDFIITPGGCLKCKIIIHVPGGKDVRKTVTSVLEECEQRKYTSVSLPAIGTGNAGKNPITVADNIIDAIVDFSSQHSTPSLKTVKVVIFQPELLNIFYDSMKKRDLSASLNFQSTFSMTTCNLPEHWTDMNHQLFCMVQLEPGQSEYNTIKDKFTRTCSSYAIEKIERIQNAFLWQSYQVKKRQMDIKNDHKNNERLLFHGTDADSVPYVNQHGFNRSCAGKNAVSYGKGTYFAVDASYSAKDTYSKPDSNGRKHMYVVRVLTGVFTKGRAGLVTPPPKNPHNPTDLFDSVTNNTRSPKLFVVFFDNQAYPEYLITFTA
# Experiment: biochemical
smiles,measurement,value
"Nc1nnc2sc3cc(O)ccc3n12 [Compound 109, 3-Amino[1,2,4]triazolo[3,4-b][1,3]benzothiazol-7-ol]",IC50,680 nM
